The results in this text go back to patent US5716986A, “Oxaindene derivatives and process for the preparation thereof” (priority 1995, dated 1998).

Some results are limits rather than exact numbers.

Assay [1] concerns the target T1, 5-lipoxygenase (5-LO) enzyme (Homo sapiens, UniProt P09917).
T1 construct: the enzyme in the cytosol was partially purified by ammonium sulphate fractionation; endogenous in cells; host or cells: human polymorphonuclear leukocytes (sonicated, cytosol, ammonium sulphate fraction)
T1 sequence (P09917 1-674): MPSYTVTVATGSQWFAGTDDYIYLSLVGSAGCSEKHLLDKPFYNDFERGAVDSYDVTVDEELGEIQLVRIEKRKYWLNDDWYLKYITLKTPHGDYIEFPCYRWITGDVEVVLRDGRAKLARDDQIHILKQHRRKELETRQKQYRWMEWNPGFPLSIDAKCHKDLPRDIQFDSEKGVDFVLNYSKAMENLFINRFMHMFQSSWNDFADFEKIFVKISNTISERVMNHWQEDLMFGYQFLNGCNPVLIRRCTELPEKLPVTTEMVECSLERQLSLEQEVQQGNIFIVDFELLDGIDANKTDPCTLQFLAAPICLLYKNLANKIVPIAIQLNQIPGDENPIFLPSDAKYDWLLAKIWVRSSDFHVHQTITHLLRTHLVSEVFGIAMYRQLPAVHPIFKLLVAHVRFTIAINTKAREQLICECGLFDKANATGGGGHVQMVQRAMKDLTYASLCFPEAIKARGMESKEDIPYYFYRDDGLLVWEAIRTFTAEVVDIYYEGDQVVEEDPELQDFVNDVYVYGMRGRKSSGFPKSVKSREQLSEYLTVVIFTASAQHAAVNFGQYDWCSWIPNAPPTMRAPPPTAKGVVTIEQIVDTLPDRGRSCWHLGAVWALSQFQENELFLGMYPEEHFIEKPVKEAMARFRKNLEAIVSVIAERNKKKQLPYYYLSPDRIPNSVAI
The assay is described as follows: Measurement of 5-LO enzyme activity in cell free system prepared from human leukocytes (direct). The following applies: human polymorphonuclear leukocytes, 0.02 mM arachidonic acid, pH 7.5, 37° C., 5 minutes, read-out: 5-lipoxygenase enzyme inhibition, direct, IC50. In kind it is biochemical. How it is done: 1. Measurement of 5-LO enzyme activity in cell free system prepared from human leukocytes
The enzyme activity was measured according to the modified method of Ochi et al. [K. Ochi, T. Yoshimoto, S. Yamamoto, K. Taniguchi, T. Miyamoto: Arachidonate 5-lipoxygenase of guinea pig peritoneal polymorphonuclear leukocytes, J. Biol. Chem. 258, 5754-5758 (1983)]. The principle of the method is as follows: in in vitro systems, during the reaction catalysed by 5-LO 5-hydroxyperoxy-6,8,11,14-eicosatetraenoic acid (5-HPETE) is formed from arachidonic acid, then it is transformed to 5-hydroxy-6,8,11,14-eicosatetraenoic acid (5-HETE). Both 5-HPETE and 5-HETE have absorption maximum at 236 nm, therefore it is possible to determine the activity of 5-LO enzyme by measuring the change of absorption at 236 nm. 5-LO was prepared from human polymorphonuclear leukocytes by a simple purification procedure. The cells were washed and lysed by a sonic disintegrator. The lysate was centrifuged and the enzyme in the cytosol was partially purified by ammonium sulphate fractionation (the enzyme precipitates at 50% saturation). The reaction mixture (50 mM tris-HCl pH=7.5, 2mM CaCl2, 0.1 mM ATP, 0.02 mM arachidonic acid) was incubated at 37° C. for 5 minutes. The reaction was started with the addition of arachidonic acid and stopped by the addition of 10 mM of citric acid. The thus-obtained 5-HPETE and 5-HETE were extracted with a 6:4 mixture of diethyl ether and hexane and the absorption of the organic phase was measured by spectrophotometry at […].

Assay [2] concerns the target T1, 5-lipoxygenase (5-LO) enzyme. The assay is described as follows: Determination of 5-LO enzyme activity of human leukocytes by measuring their leukotriene B4 production (whole cell). In kind it is cell-based. The following applies: human PMN leukocytes, LTB4 release, ionophore A-23187 0.001 mM, pH 7.2, 37° C., 15 minutes, RIA; read-out: 5-lipoxygenase enzyme inhibition, in whole cell, IC50. An excerpt: 2. Determination of 5-LO enzyme activity of human leukocytes by measuring their leukotriene B4 production
The method of Mia et al. was applied [H. Mita, Y. Yui and T. Shida: Effect of AA-861, a 5-lipoxygenase inhibitor on leukotriene synthesis in human polymorphonuclear leukocytes and on cyclooxygenase and 12-lipoxygenase activities in human platelets, Allergy 41, 493-498, (1986)]. The principle of the experiment is as follows: the calcium ionophore A-23187 induces the synthesis and the release of LTB4 by human polymorphonuclear leukocytes. The amount of LTB4 released into the incubation medium reflects the 5-LO enzyme activity of the intact cells. The incubation medium was Hank's balanced medium (HBBS) supplemented with 17 mM of Tris-HCl (pH 7.2), 1.22 mM of CaCl2, 1 mM of MgCl2, 0.001 mM of A-23187 and 10^4 PMN leukocyte per ml reaction mixture. The reaction was started with the addition of ionophore then incubated at 37° C. for 15 minutes. The reaction was stopped by adding 5 mM of EDTA and by chilling the samples in an ice bath. The samples were centrifuged and the amount of LTB4 in the supernatant was determined by radioiimmunoassay (RIA).

A further assay concerns PAF lethality in mice. The assay is described as follows: PAF induced anaphylactic shock test in mice (PAF lethality). The class given is in vivo. The following applies: Mus musculus, ip, 1 h; male NMRI mice, intraperitoneal, 30 minutes before intravenous PAF 100 μg/kg, mortality at one hour; read-out: PAF lethality in mice ID50. The procedure:
4. PAF induced anaphylactic shock test in mice
A modification of the method of Young et al. [Young, J. M., Maloney, P. J., Jubb, S. N. and Clark, J. S.: Pharmacological investigation of the mechanism of platelet-activating factor mortality in the mouse, Prostaglandins 30, 545-551 (1985)] was used. The experiments were carried out in male NMRI mice weighing 20-25 g (10 animals/group). The test compounds were suspended in 0.4% methyl cellulose and administered intraperitoneally in a volume of 10 ml/kg. The mice of the control group received only vehicle. 30 minutes later the animals received intravenous PAF in a dose of 100 μg/kg (5 ml/kg). Mortality was determined one hour after PAF administration. Every experiment was repeated three times (n=30). The ratio of mortality of the treated animals was compared to that of the control mice. ID50 values were calculated by linear regression analysis.

The subject of assay [3] is Ear oedema induced by arachidonic acid in mice. The assay is described as follows: Ear oedema induced by arachidonic acid in mice. In kind it is in vivo, NMRI strain). To be noted: female NMRI mice, topical, 30 minutes before arachidonic acid (3 mg), measured 60 minutes later. The procedure:
3. Ear oedema induced by arachidonic acid in mice
Inflammation of ear was induced by arachidonic acid using a modified version of the procedure described by Young et al. [Young, J. M., Spires, D. A., Bedord, C. J., Wagner, B., Ballaron, S. J., De Young, L. M.: The mouse ear inflammatory response to topical arachidonic acid, J. Invest. Dermatol. 82, 67-371 (1984)]. The experiments were carried out in female mice from the NMRI strain weighing 25 to 30 g (8 animals/groups). Drugs were applied topically in acetone or ethanol by an automatic pipette in 10 μl volumes to both the inner and outer surfaces of the ear. 30 minutes after drug or vehicle administration both sides of the left ear were brushed with 3 mg of arachidonic acid in 20 μl of acetone and both sides of the right ear were treated with 20 μl of acetone only. 60 minutes later the animals were killed by aether, then a disk of 7 mm diameter was cut off both ears. The mass of each disk was measured by an analytical scale and the mean of the difference of the left and right ears was calculated for every group. ID50 values were determined by plotting the log-dose versus percentage response as compared to vehicle-treated animals.

As a reminder, the IC50 is the concentration at which inhibition is half-maximal. With `Cc1c(C)c2c(c(C)c1O)[C@@H]1CC=C[C@@H]1O2` (relative stereo) [Example 1, cis-4,6,7-Trimethyl-3a,8a-dihydro-3H-8-oxacyclopenta[a]indene-5-ol], the values for the concentration for half-maximal inhibition (IC50) in assay [1] and in assay [2] were 74 nM and 680 nM, respectively. In addition, the ED50 in the assay with PAF lethality in mice turned out to be 51.7 mg/kg.

With `Cc1c(C)c2c(c(C)c1O)[C@@H]1CCC[C@@H]1O2` (relative stereo) [Example 2, cis-4,6,7-Trimethyl-2,3,3 a,8a-tetrahydro-1H-8-oxacyclopenta[a]indene-5-ol], the IC50 in assay [1] is 390 nM; in assay [2], 50 nM. The “Arachidonic acid ear oedeme in mice ID50” value in assay [3] turned out to be 0.18 mg/ear. Moreover, the ED50 in the assay with PAF lethality in mice is 16.2 mg/kg.

As for `Cc1c(O)cc2c(c1C)O[C@H]1C=CC[C@@H]21` (relative stereo) [Example 3, cis-6,7-Dimethyl-3a,8a-dihydro-3H-8-oxacyclopenta[a]indene-5-ol], the concentration for half-maximal inhibition (IC50) in assay [1] amounted to 5500 nM; in assay [2] it was 500 nM.

Consider `Cc1c(O)cc2c(c1C)O[C@H]1CCC[C@@H]21` (relative stereo) [Example 4, cis-6,7-Dimethyl-2,3,3a,8a-tetrahydro-1H-8-oxacyclopenta[a]indene-5-ol], for which the concentration for half-maximal inhibition (IC50) in assay [1] came out at 1200 nM; in assay [2], 300 nM. In addition, the ED50 in the assay on PAF lethality in mice was 65.2 mg/kg.

As for `COc1cc2c(cc1O)[C@@H]1CC=C[C@@H]1O2` (relative stereo) [Example 5, cis-6-Methoxy-3a,8a-dihydro-3H-8-oxacyclopenta[a]indene-5-ol], the 50% inhibitory concentration (IC50) in assay [1] is 2700 nM; in assay [2], 300 nM. In addition, the “Arachidonic acid ear oedeme in mice ID50” value in assay [3] was 0.18 mg/ear.

As for `COc1cc2c(cc1O)[C@@H]1CCC[C@@H]1O2` (relative stereo) [Example 6, cis-6-Methoxy-2,3,3a,8a-tetrahydro-1H-8-oxacyclopenta[a]indene-5-ol], the IC50 in assay [1] was determined as 1200 nM. Moreover, in assay [3], the “Arachidonic acid ear oedeme in mice ID50” value is on record as 0.23 mg/ear. Also, in the assay with PAF lethality in mice, the ED50 turned out to be 100 mg/kg.

Take `CCOc1cc2c(cc1O)[C@@H]1CC=C[C@@H]1O2` (relative stereo) [Example 7, cis-6-Ethoxy-3a,8a-dihydro-3H-8-oxacyclopenta[a]indene-5-ol]: the IC50 was found to be 1700 nM in assay [1] and 300 nM in assay [2]. Further, the “Arachidonic acid ear oedeme in mice ID50” value in assay [3] is 0.11 mg/ear. The ED50 with PAF lethality in mice came to 27.3 mg/kg.

For `CCOc1cc2c(cc1O)[C@@H]1CCC[C@@H]1O2` (relative stereo) [Example 8, cis-6-Ethoxy-2,3,3a,8a-tetrahydro-1H-8-oxa-cyclopenta[a]indene-5-ol], in assay [1], the half-inhibitory concentration (IC50) amounted to 490 nM. Also, the ED50 in the assay on PAF lethality in mice amounted to 45 mg/kg.

In the case of `Cc1c(C)c2c(c(C)c1O)[C@H]1CCC=C[C@H]1O2` (relative stereo) [Example 23, cis-1,3,4-Trimethyl-5a,8,9,9a-tetrahydrodibenzofurane-2-ol], the results for the half-maximal inhibitory concentration (IC50) in assay [1] and in assay [2] were 540 nM and 140 nM, respectively. Also, the ED50 in the assay on PAF lethality in mice was found to be 23.2 mg/kg.

Turning to `CC1=C(C)C(=O)C(CCCCC#CCCCC#CCO)=C(C)C1=O` [AA-861, 2-(12-hydroxy-5,10-dodecadiinyl)-3,5,6-trimethyl-p-benzoquinone, reference compound], the values for the half-inhibitory concentration (IC50) in assay [1] and in assay [2] were 4100 nM and 1100 nM, respectively. Also, the “Arachidonic acid ear oedeme in mice ID50” value in assay [3] is recorded as 0.13 mg/ear. Also, in the assay with PAF lethality in mice, the ED50 turned out to be 58.9 mg/kg.

As to `Cc1c(C)c2c(c(C)c1O)C1CCCCCC1O2` (stereo not drawn) [Example 10, 1,2,4-Trimethyl-4b,6,7,8,9,9a-hexahydro-5H-10-oxabenzo[a]azulene-3-ol], the half-inhibitory concentration (IC50) in assay [1] amounted to 99 nM; in assay [2] it was 70 nM. Further, the “Arachidonic acid ear oedeme in mice ID50” value in assay [3] came to 0.16 mg/ear. Moreover, the ED50 with PAF lethality in mice came out at 22.5 mg/kg.

`CC(Cc1ccc(O)c(O)c1)C(C)Cc1ccc(O)c(O)c1` (stereo not drawn) [NDGA, 1,4-bis(3,4-dihydroxyphenyl)-2,3-dimethylbutane, reference compound]: the “Arachidonic acid ear oedeme in mice ID50” value in assay [3] is listed as above 1.0 mg/ear. Further, the ED50 in the assay on PAF lethality in mice stood at 29.2 mg/kg.

`O=C1CCN(c2ccccc2)N1` [Phenidone, 1-phenyl-3-pyrazolidinone, reference compound]: the “Arachidonic acid ear oedeme in mice ID50” value in assay [3] is reported as 0.18 mg/ear. Further, the ED50 with PAF lethality in mice is 14.2 mg/kg.
